Tested on: NOMO1
Assay: cell viability relative to DMSO control; higher = less cytotoxic
Conditions: 48 h
How it was run: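 In 1536-well plates, 5 μl of leukemia cells were seeded per well: 500 cells/well for NOMO1 or SEM and 1000 cells/well for P12-Ichikawa. Each line had first been adapted for at least four passages in each medium. Library compounds in DMSO were pin-dosed at 11 threefold concentrations between 47 μM and 0.79 nM, and CellTiter-Glo One luminescence was read after 48 h at 37°C. Viability is a per-plate percentage relative to DMSO wells, with cell-free wells as background.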

[1] = HPLM + 10% dialyzed FBS, 0.000781 µM
[2] = HPLM + 10% dialyzed FBS, 0.00234 µM
[3] = HPLM + 10% dialyzed FBS, 0.00702 µM
[4] = HPLM + 10% dialyzed FBS, 0.0211 µM
[5] = HPLM + 10% dialyzed FBS, 0.0632 µM
[6] = HPLM + 10% dialyzed FBS, 0.19 µM
[7] = HPLM + 10% dialyzed FBS, 0.569 µM
[8] = HPLM + 10% dialyzed FBS, 1.71 µM
[9] = HPLM + 10% dialyzed FBS, 5.12 µM
[10] = HPLM + 10% dialyzed FBS, 15.4 µM
[11] = HPLM + 10% dialyzed FBS, 46.1 µM
[12] = RPMI 5 mM glucose + 10% FBS, 0.000781 µM
[13] = RPMI 5 mM glucose + 10% FBS, 0.00234 µM
[14] = RPMI 5 mM glucose + 10% FBS, 0.00702 µM
[15] = RPMI 5 mM glucose + 10% FBS, 0.0211 µM
[16] = RPMI 5 mM glucose + 10% FBS, 0.0632 µM
[17] = RPMI 5 mM glucose + 10% FBS, 0.19 µM
[18] = RPMI 5 mM glucose + 10% FBS, 0.569 µM
[19] = RPMI 5 mM glucose + 10% FBS, 1.71 µM
[20] = RPMI 5 mM glucose + 10% FBS, 5.12 µM
[21] = RPMI 5 mM glucose + 10% FBS, 15.4 µM
[22] = RPMI 5 mM glucose + 10% FBS, 46.1 µM
[23] = RPMI 5 mM glucose + 10% dialyzed FBS, 0.000781 µM
[24] = RPMI 5 mM glucose + 10% dialyzed FBS, 0.00234 µM
[25] = RPMI 5 mM glucose + 10% dialyzed FBS, 0.00702 µM
[26] = RPMI 5 mM glucose + 10% dialyzed FBS, 0.0211 µM
[27] = RPMI 5 mM glucose + 10% dialyzed FBS, 0.0632 µM
[28] = RPMI 5 mM glucose + 10% dialyzed FBS, 0.19 µM
[29] = RPMI 5 mM glucose + 10% dialyzed FBS, 0.569 µM
[30] = RPMI 5 mM glucose + 10% dialyzed FBS, 1.71 µM
[31] = RPMI 5 mM glucose + 10% dialyzed FBS, 5.12 µM
[32] = RPMI 5 mM glucose + 10% dialyzed FBS, 15.4 µM
[33] = RPMI 5 mM glucose + 10% dialyzed FBS, 46.1 µM

## COc1cc(N2CCC(C(N)=O)CC2)ccc1Nc1nc(N)c(Cl)c(Nc2ccccc2[S+](=O)([O-])C(C)C)n1
[1]
  cell viability: 85.6%
[2]
  cell viability: 79.1%
[3]
  cell viability: 99.3%
[4]
  cell viability: 98.3%
[5]
  cell viability: 84.8%
[6]
  cell viability: 96.5%
[7]
  cell viability: 99.6%
[8]
  cell viability: 87.1%
[9]
  cell viability: 66%
[10]
  cell viability: 46.7%
[11]
  cell viability: 2.93%
[12]
  cell viability: 91.9%
[13]
  cell viability: 83.5%
[14]
  cell viability: 94%
[15]
  cell viability: 89.9%
[16]
  cell viability: 89%
[17]
  cell viability: 96.4%
[18]
  cell viability: 92%
[19]
  cell viability: 91.2%
[20]
  cell viability: 75.5%
[21]
  cell viability: 65.9%
[22]
  cell viability: 2.25%
[23]
  cell viability: 83.9%
[24]
  cell viability: 94.2%
[25]
  cell viability: 90.9%
[26]
  cell viability: 80.1%
[27]
  cell viability: 96.4%
[28]
  cell viability: 93.8%
[29]
  cell viability: 89.6%
[30]
  cell viability: 80.4%
[31]
  cell viability: 60.7%
[32]
  cell viability: 54.1%
[33]
  cell viability: 4.26%

## CNC(=O)[C@H](Cc1ccccc1)NC(=O)[C@H](CC(C)C)[C@H](CSc1cccs1)C(=O)NO
[1]
  cell viability: 79.9%
[2]
  cell viability: 100%
[3]
  cell viability: 91.7%
[4]
  cell viability: 101%
[5]
  cell viability: 86.8%
[6]
  cell viability: 93.7%
[7]
  cell viability: 97.8%
[8]
  cell viability: 94.7%
[9]
  cell viability: 89.4%
[10]
  cell viability: 77.8%
[11]
  cell viability: 79.7%
[12]
  cell viability: 85.6%
[13]
  cell viability: 76.9%
[14]
  cell viability: 73.4%
[15]
  cell viability: 81.1%
[16]
  cell viability: 93.5%
[17]
  cell viability: 87.7%
[18]
  cell viability: 87.2%
[19]
  cell viability: 95.4%
[20]
  cell viability: 75%
[21]
  cell viability: 78.3%
[22]
  cell viability: 91.8%
[23]
  cell viability: 78.9%
[24]
  cell viability: 89%
[25]
  cell viability: 81.5%
[26]
  cell viability: 96.7%
[27]
  cell viability: 87.6%
[28]
  cell viability: 89.1%
[29]
  cell viability: 101%
[30]
  cell viability: 92.8%
[31]
  cell viability: 83%
[32]
  cell viability: 70.8%
[33]
  cell viability: 81.3%

## O=C(NC1CCOCC1)c1ccc(-c2cc(-c3c[nH]nc3-c3ccccn3)ccn2)cc1
[1]
  cell viability: 125%
[2]
  cell viability: 99.7%
[3]
  cell viability: 110%
[4]
  cell viability: 93.6%
[5]
  cell viability: 120%
[6]
  cell viability: 107%
[7]
  cell viability: 114%
[8]
  cell viability: 101%
[9]
  cell viability: 87.5%
[10]
  cell viability: 110%
[11]
  cell viability: 108%
[12]
  cell viability: 99.4%
[13]
  cell viability: 97.6%
[14]
  cell viability: 102%
[15]
  cell viability: 98.8%
[16]
  cell viability: 99.7%
[17]
  cell viability: 104%
[18]
  cell viability: 93.2%
[19]
  cell viability: 87.3%
[20]
  cell viability: 93.1%
[21]
  cell viability: 104%
[22]
  cell viability: 93.8%
[23]
  cell viability: 106%
[24]
  cell viability: 94.9%
[25]
  cell viability: 99.6%
[26]
  cell viability: 91.1%
[27]
  cell viability: 104%
[28]
  cell viability: 92.4%
[29]
  cell viability: 95.3%
[30]
  cell viability: 104%
[31]
  cell viability: 96.7%
[32]
  cell viability: 97.8%
[33]
  cell viability: 93%

## ClC1=CC=C(CCCOC/2=N/NC(=O)C(=C2NCC3=CN=CC=C3)/Br)C=C1
[1]
  cell viability: 124%
[2]
  cell viability: 117%
[3]
  cell viability: 150%
[4]
  cell viability: 115%
[5]
  cell viability: 115%
[6]
  cell viability: 118%
[7]
  cell viability: 97.9%
[8]
  cell viability: 75.4%
[9]
  cell viability: 38.8%
[10]
  cell viability: 15.9%
[11]
  cell viability: 7.76%
[23]
  cell viability: 121%
[24]
  cell viability: 120%
[25]
  cell viability: 127%
[26]
  cell viability: 112%
[27]
  cell viability: 111%
[28]
  cell viability: 109%
[29]
  cell viability: 106%
[30]
  cell viability: 106%
[31]
  cell viability: 66.2%
[32]
  cell viability: 27.8%
[33]
  cell viability: 12.9%

## C#CCN(C)[C@H](C)Cc1ccccc1
[1]
  cell viability: 88.2%
[2]
  cell viability: 89.6%
[3]
  cell viability: 88.5%
[4]
  cell viability: 87.2%
[5]
  cell viability: 76.7%
[6]
  cell viability: 79.7%
[7]
  cell viability: 85.6%
[8]
  cell viability: 83%
[9]
  cell viability: 92%
[10]
  cell viability: 79.8%
[11]
  cell viability: 65.1%
[12]
  cell viability: 82.2%
[13]
  cell viability: 82.8%
[14]
  cell viability: 82%
[15]
  cell viability: 85.4%
[16]
  cell viability: 77%
[17]
  cell viability: 83.9%
[18]
  cell viability: 79.4%
[19]
  cell viability: 76%
[20]
  cell viability: 82.9%
[21]
  cell viability: 78.9%
[22]
  cell viability: 77.5%
[23]
  cell viability: 77.6%
[24]
  cell viability: 86.1%
[25]
  cell viability: 84.2%
[26]
  cell viability: 95.6%
[27]
  cell viability: 85%
[28]
  cell viability: 94%
[29]
  cell viability: 83.5%
[30]
  cell viability: 80%
[31]
  cell viability: 92.2%
[32]
  cell viability: 83.6%
[33]
  cell viability: 82.7%

## Fc1ccc(C(c2ccc(F)cc2)N2CCN(C/C=C/c3ccccc3)CC2)cc1
[1]
  cell viability: 115%
[2]
  cell viability: 123%
[3]
  cell viability: 144%
[4]
  cell viability: 135%
[5]
  cell viability: 117%
[6]
  cell viability: 121%
[7]
  cell viability: 104%
[8]
  cell viability: 103%
[9]
  cell viability: 105%
[10]
  cell viability: 112%
[11]
  cell viability: 95.9%
[12]
  cell viability: 112%
[13]
  cell viability: 111%
[14]
  cell viability: 106%
[15]
  cell viability: 123%
[16]
  cell viability: 113%
[17]
  cell viability: 114%
[18]
  cell viability: 107%
[19]
  cell viability: 107%
[20]
  cell viability: 108%
[21]
  cell viability: 115%
[22]
  cell viability: 104%

## Nc1nc(-c2nn(Cc3ccccc3F)c3ncccc23)nc(N)c1N1CCOCC1
[1]
  cell viability: 75.2%
[2]
  cell viability: 103%
[3]
  cell viability: 115%
[4]
  cell viability: 102%
[5]
  cell viability: 119%
[6]
  cell viability: 122%
[7]
  cell viability: 122%
[8]
  cell viability: 122%
[9]
  cell viability: 130%
[10]
  cell viability: 112%
[11]
  cell viability: 92.1%
[12]
  cell viability: 88.5%
[13]
  cell viability: 93.8%
[14]
  cell viability: 106%
[15]
  cell viability: 107%
[16]
  cell viability: 110%
[17]
  cell viability: 115%
[18]
  cell viability: 113%
[19]
  cell viability: 120%
[20]
  cell viability: 104%
[21]
  cell viability: 112%
[22]
  cell viability: 113%
[23]
  cell viability: 96.3%
[24]
  cell viability: 107%
[25]
  cell viability: 107%
[26]
  cell viability: 110%
[27]
  cell viability: 123%
[28]
  cell viability: 106%
[29]
  cell viability: 111%
[30]
  cell viability: 116%
[31]
  cell viability: 108%
[32]
  cell viability: 121%
[33]
  cell viability: 110%

## Nc1ccccc1NC(=O)c1ccc(CNc2nccc(-c3cccnc3)n2)cc1
[1]
  cell viability: 111%
[2]
  cell viability: 115%
[3]
  cell viability: 117%
[4]
  cell viability: 118%
[5]
  cell viability: 119%
[6]
  cell viability: 117%
[7]
  cell viability: 105%
[8]
  cell viability: 72.1%
[9]
  cell viability: 23.4%
[10]
  cell viability: 9.43%
[11]
  cell viability: 9.03%
[12]
  cell viability: 90.9%
[13]
  cell viability: 113%
[14]
  cell viability: 103%
[15]
  cell viability: 103%
[16]
  cell viability: 122%
[17]
  cell viability: 114%
[18]
  cell viability: 97.8%
[19]
  cell viability: 83.2%
[20]
  cell viability: 27.2%
[21]
  cell viability: 9.84%
[22]
  cell viability: 8.73%
[23]
  cell viability: 108%
[24]
  cell viability: 117%
[25]
  cell viability: 115%
[26]
  cell viability: 119%
[27]
  cell viability: 132%
[28]
  cell viability: 114%
[29]
  cell viability: 106%
[30]
  cell viability: 74.7%
[31]
  cell viability: 24.2%
[32]
  cell viability: 12.2%
[33]
  cell viability: 10.7%
